In patent publication EP0378320A2, “Microbial transformation product” (Merck & Co., Inc., priority 1989, dated 1990):

System: mouse T lymphocytes
Experiment: T-cell proliferation assay (ionomycin plus PMA induced T-cell stimulation, tritiated thymidine uptake)
Format: cell-based
Conditions: T-lymphocyte, standard at 10 ng/ml
Method: The principle of this assay is to measure the proliferation of mouse T lymphocytes stimulated with the combination of ionomycin plus PMA. A positive sample in this assay will inhibit T-cell proliferation, as indicated by reduced tritiated thymidine uptake.
Purified L-683,756, as prepared by HPLC above, was dissolved in absolute ethanol at 1 mg/ml.
Spleens from C57B1/6 mice were taken under sterile conditions and gently dissociated in ice-cold RPMI 1640 culture medium (GIBCO, Grand Island, N.Y.) supplemented with 10% heat-inactivated fetal calf serum (GIBCO). Cells were pelleted by centrifugation at 1500 rpm for 8 minutes. […]
Purified T lymphocytes were resuspended at 2.5 x 10⁵ cells/ml in complete culture medium composed of RPMI 1640 medium with 10% heat-inactivated fetal calf serum, […] glutamine, 1 mM sodium pyruvate, 2 x 10⁻⁵ M 2-mercaptoethanol and 50 µg/ml gentamycin. […] The proliferation of T lymphocytes was assessed by measurement of tritiated thymidine incorporation. […] Radioactivity of filter discs corresponding to individual wells was measured by standard liquid scintillation counting methods (Betacounter). Mean counts per minute of replicate wells were calculated and the results expressed as percent inhibition of tritiated thymidine uptake (proliferation) as follows: [formula]

SMILES: CC[C@@H]1/C=C(\C)C[C@H](C)C[C@H](OC)[C@H]2O[C@@](O)(C(=O)C(=O)N3CCCC[C@H]3C(=O)O[C@H](/C(C)=C/[C@@H]3CC[C@@H](O)[C@H](OC)C3)[C@H](C)[C@@H](O)CC1=O)[C@H](C)C[C@@H]2OC [L-683,590]
- inhibition at 0.01 µg/mL: 99%
